Results taken from patent publication US20230165870A1, “6,8-dioxa-3-azabicyclo[3.2.l]Octane Carboxylic Acids And Their Derivatives For Use In The Treatment Of Inflammations” (MINERVA S.R.L., priority 2020, published 2023).
Counter-ions that a name gives are not always drawn.

What was measured:
Type in all cases: cell-based
[1] = tested on: miR-101; test: Expression of miR-101 in human monocytes stimulated with LPS (Real-time PCR)
Protocol: In order to study the effect of MT8 on the activity of miR-101 in the pro-inflammatory setting, human monocytes isolated from buffy coat were stimulated with 1 µg/ml of LPS in the presence or absence of MT8 at the final concentration of 1 0 µM. After 60 minutes, the cells were lysed in TRIzol for the extraction of total RNA, which was then used for the quantification of miR-101 by Real-time PCR. […] The quantitative determination was performed using the 5 s ribosomal RNA gene as housekeeping and the relative increase calculated applying the 2^-ΔCt method.

[2] = tested on: ADAR1; test: Activation of the homodimeric complex of ADAR1 in HEK-293 TrkA cells (immunoprecipitation, Western Blot, densitometry); details: serum-free 18 hours, 10 µM MT8, 60 minutes, FIG. 2
Protocol: In order to study the effect of the MT8 compound on the ADAR1 enzyme, HEK-293 TrkA cells were cultured in serum-free medium for 18 hours and incubated with or without 10 µM of MT8 for another 60 minutes. The cells were then lysed in RIPA buffer (50 mM Tris-HCI, pH 7.4; 150 mM NaCl; 2 mM EDTA; 1 mM NaF; 1 mM sodium orthovanadate, 1% NP-40) and the proteins immunoprecipitated with Anti-ADAR1 antibody and subjected to biochemical analysis by Western Blot. Briefly, 500 µg of total protein was immunoprecipitated using a specific Anti-ADAR1 antibody. The immunoprecipitated product was loaded onto polyacrylamide gel and transferred onto the PVDF membrane. The membrane was then incubated with specific anti-ADAR1 antibodies for signal detection. The analysis allowed to highlight the presence of homodimeric complexes ADAR1/ADAR1 and of the monomeric forms of ADAR1 p150 and p110. The quantitative determination of the homodimer complex of ADAR1, performed by densitometry, was expressed as the ratio between the density of the band of the homodimer ADAR1/ADAR1 and that of the monomer ADAR1 p110.

[3] = tested on: miR-101; test: miR-101 expression levels in HEK-293 TrkA cells following ADAR1 knock-down (Real-time PCR); details: 10 µM MT8, 60 minutes, FIG. 4
Protocol: In order to study the effect of MT8 on miR-101 regulatory mechanisms under metabolic stress conditions, HEK-293 TrkA cells were transfected with ADAR1-specific siRNA or control siRNA (scrambled) at the final concentration of 50 nM. After 48 hours, the cells were incubated in serum-free medium for 18 hours and stimulated with MT8 at a concentration of 10 µM for a further 60 minutes. The cells were lysed with TRIzol for the extraction of total RNA, used for the assay of miR-101 by Real Time PCR. The quantitative determination of miR-101 was performed using the 5 s ribosomal RNA gene as the housekeeping gene and the relative increase calculated applying the 2^-ΔCt method.

[4] = tested on: human dendritic cells stimulated with LPS; test: Production of IL-1β, TNF-α and IL-6 in human monocytes-derived dendritic cells stimulated with LPS (Luminex multiplex assay); details: 50 ng/ml LPS, MT8 10 or 30 µM, 18 hours
Protocol: (§1) LipoPoliSaccharide (LPS) is an endotoxin that induces a strong immune reaction. In the presence of LPS, immune system cells such as monocytes and dendritic cells react by producing high amounts of inflammatory cytokines such as IL-1β, TNFα and IL-6. To test the ability of MT8 to modulate the production of these cytokines, human monocytes (isolated from buffy coat using anti-CD14 antibody) and human monocytes-derived dendritic cells (MDCs) were cultured at 10^6 cells/ml in complete medium and stimulated with 50 ng/ml of LPS, in the presence or absence of MT8 at a concentration of 10 or 30 µM. After 18 hours of incubation, the supernatants of both cell types were collected and the production of IL-1β, TNF-α, and IL-6 was evaluated by Luminex multiplex assay technology. […] In particular, MT8 was able to decrease the amount of IL-1β in a dose-dependent manner in both monocytes and dendritic cells. In the latter, the reduction recorded was over 50% (FIG. 1B), while in monocytes the reduction was about 17% (FIG. 1A). In any case, this reduction is statistically significant. Similar results were obtained regarding the production of TNF-α which, in the presence of MT8, is reduced by about 17% in monocytes (FIG. 1C) and by 19% in dendritic cells (FIG. 1D). Again, the reduction observed in the presence of MT8 is statistically significant. […] Also, in the latter case the reduction is statistically significant.

[5] = tested on: human monocytes stimulated with LPS; test: Production of IL-1β, TNF-α and IL-6 in human monocytes stimulated with LPS (Luminex multiplex assay); details: 50 ng/ml LPS, MT8 10 or 30 µM, 18 hours
Protocol: as §1

## O=C(O)[C@H]1O[C@H]2O[C@@H]1C(=O)N(Cc1ccccc1)[C@@H]2Cc1ccccc1 [MT8, (1S, 4R, 5R, 7S) -3,4-dibenzyl-2-oxo-6,8-dioxa-3-azabicyclo[3.2.1]octane-7-carboxylic acid L-lysine Salt]
[1]; cellular and tissue systems exposed to MT8
  time of exposure until decrease of miR-101: ≤ 1 h
[1]; human monocytes, 1 µg/ml LPS, MT8 1 0 µM, 60 minutes, FIG. 3
  miR-101 expression level compared to monocytes treated with LPS alone: strong decrease
[2]
  homodimeric (active) form of ADAR1, ratio homodimer ADAR1/ADAR1 to monomer ADAR1 p110, compared to untreated cells: high increase
[3]; ADAR1-specific siRNA 50 nM
  ability to decrease miR-101 expression in cells transfected with specific siRNA for ADAR1: not
[3]; control (scrambled) siRNA 50 nM
  miR-101 expression level in scrambled siRNA-transfected cells: marked decrease
[4]; FIG. 1B
  reduction of IL-1β production: over 50%
[4]; FIG. 1D
  reduction of TNF-α production: 19%
[4]; FIG. 1F
  reduction of IL-6 production: about 65%
[5]; FIG. 1A
  reduction of IL-1β production: about 17%
[5]; FIG. 1C
  reduction of TNF-α production: about 17%
[5]; FIG. 1E
  reduction of IL-6 production: about 70%
